Key:
[1] = The drug is tested on Bifidobacterium ruminantium strain: fecal isolate for biotransformation. The drug concentrations were measured before and after a 12-h incubation by liquid-chromatography-coupled mass spectrometry (LC–MS); conditions: 2 µM
[2] = The drug is tested on Collinsella aerofaciens strain: ATCC25986 for biotransformation. The drug concentrations were measured before and after a 12-h incubation by liquid-chromatography-coupled mass spectrometry (LC–MS); conditions: 2 µM
[3] = The drug is tested on Bacteroides vulgatus strain: ATCC8482 for biotransformation. The drug concentrations were measured before and after a 12-h incubation by liquid-chromatography-coupled mass spectrometry (LC–MS); conditions: phocaeicola vulgatus, 2 µM
[4] = The drug is tested on Bacteroides caccae strain: ATCC43185 for biotransformation. The drug concentrations were measured before and after a 12-h incubation by liquid-chromatography-coupled mass spectrometry (LC–MS); conditions: 2 µM
[5] = The drug is tested on Ruminococcus torques strain: ATCC27756 for biotransformation. The drug concentrations were measured before and after a 12-h incubation by liquid-chromatography-coupled mass spectrometry (LC–MS); format: ADME; parameters: dose 2 uM, timepoint 0 vs 12 hours; conditions: 2 µM
[6] = bacteroides fragilis, 12 h, 2 µM
Description: The drug is tested on Bacteroides fragilis strain: DS-208 for biotransformation. The drug concentrations were measured before and after a 12-h incubation by liquid-chromatography-coupled mass spectrometry (LC–MS)

[7] = The drug is tested on Ruminococcus lactaris strain: ATCC29176 for biotransformation. The drug concentrations were measured before and after a 12-h incubation by liquid-chromatography-coupled mass spectrometry (LC–MS); conditions: 2 µM
[8] = bacteroides thetaiotaomicron, 12 h, 2 µM
Description: The drug is tested on Bacteroides thetaiotaomicron strain: VPI-5482 for biotransformation. The drug concentrations were measured before and after a 12-h incubation by liquid-chromatography-coupled mass spectrometry (LC–MS)

[9] = anaerostipes sp., 12 h, 2 µM
Description: The drug is tested on Anaerostipes sp. strain: fecal isolate for biotransformation. The drug concentrations were measured before and after a 12-h incubation by liquid-chromatography-coupled mass spectrometry (LC–MS)

[10] = The drug is tested on Bifidobacterium longum subsp. Infantis strain: CCUG52486 for biotransformation. The drug concentrations were measured before and after a 12-h incubation by liquid-chromatography-coupled mass spectrometry (LC–MS); conditions: 2 µM
[11] = The drug is tested on Anaerotruncus colihominis strain: DSM17241 for biotransformation. The drug concentrations were measured before and after a 12-h incubation by liquid-chromatography-coupled mass spectrometry (LC–MS); conditions: 2 µM
[12] = The drug is tested on Parabacteroides merdae strain: ATCC43184 for biotransformation. The drug concentrations were measured before and after a 12-h incubation by liquid-chromatography-coupled mass spectrometry (LC–MS); conditions: 2 µM
[13] = parabacteroides johnsonii, 12 h, 2 µM
Description: The drug is tested on Parabacteroides johnsonii strain: DSM18315 for biotransformation. The drug concentrations were measured before and after a 12-h incubation by liquid-chromatography-coupled mass spectrometry (LC–MS)

[14] = bifidobacterium adolescentis, 12 h, 2 µM
Description: The drug is tested on Bifidobacterium adolescentis strain: ATCC 15703 for biotransformation. The drug concentrations were measured before and after a 12-h incubation by liquid-chromatography-coupled mass spectrometry (LC–MS)

[15] = The drug is tested on Ruminococcus gnavus strain: ATCC29149 for biotransformation. The drug concentrations were measured before and after a 12-h incubation by liquid-chromatography-coupled mass spectrometry (LC–MS); conditions: mediterraneibacter gnavus, 2 µM
[16] = The drug is tested on Clostridium scindens strain: ATCC35704 for biotransformation. The drug concentrations were measured before and after a 12-h incubation by liquid-chromatography-coupled mass spectrometry (LC–MS); conditions: 2 µM
[17] = The drug is tested on Dorea formicigenerans strain: ATCC27755 for biotransformation. The drug concentrations were measured before and after a 12-h incubation by liquid-chromatography-coupled mass spectrometry (LC–MS); conditions: 2 µM
[18] = The drug is tested on Bacteroides cellulosilyticus strain: DSM14838 for biotransformation. The drug concentrations were measured before and after a 12-h incubation by liquid-chromatography-coupled mass spectrometry (LC–MS); conditions: 2 µM
[19] = bacteroides intestinalis, 12 h, 2 µM
Description: The drug is tested on Bacteroides intestinalis strain: DSM17393 for biotransformation. The drug concentrations were measured before and after a 12-h incubation by liquid-chromatography-coupled mass spectrometry (LC–MS)

[20] = The drug is tested on Clostridium sp. strain: fecal isolate for biotransformation. The drug concentrations were measured before and after a 12-h incubation by liquid-chromatography-coupled mass spectrometry (LC–MS); conditions: 2 µM

SMILES | Bacterial Biotransformation [1] | Bacterial Biotransformation [2] | Bacterial Biotransformation [3] | Bacterial Biotransformation [4] | Bacterial Biotransformation [5] | Bacterial Biotransformation [6] | Bacterial Biotransformation [7] | Bacterial Biotransformation [8] | Bacterial Biotransformation [9] | Bacterial Biotransformation [10] | Bacterial Biotransformation [11] | Bacterial Biotransformation [12] | Bacterial Biotransformation [13] | Bacterial Biotransformation [14] | Bacterial Biotransformation [15] | Bacterial Biotransformation [16] | Bacterial Biotransformation [17] | Bacterial Biotransformation [18] | Bacterial Biotransformation [19] | Bacterial Biotransformation [20]
CC(C)NCC(O)c1ccc(NS(C)(=O)=O)cc1 (configuration not stated) [SOTALOL] | Compound NOT metabolized | Compound NOT metabolized | Compound NOT metabolized | Compound NOT metabolized | Compound NOT metabolized | Compound metabolized | Compound NOT metabolized | Compound metabolized | Compound NOT metabolized | Compound NOT metabolized | Compound NOT metabolized | Compound NOT metabolized | Compound NOT metabolized | Compound NOT metabolized | Compound NOT metabolized | Compound NOT metabolized | Compound NOT metabolized | Compound NOT metabolized | – | –
COc1cc(C(=O)NCc2ccc(OCCN(C)C)cc2)cc(OC)c1OC [TRIMETHOBENZAMIDE] | – | Compound NOT metabolized | Compound NOT metabolized | Compound NOT metabolized | Compound NOT metabolized | Compound NOT metabolized | Compound NOT metabolized | Compound NOT metabolized | Compound NOT metabolized | Compound NOT metabolized | Compound NOT metabolized | Compound NOT metabolized | Compound NOT metabolized | Compound NOT metabolized | Compound NOT metabolized | – | Compound NOT metabolized | Compound NOT metabolized | Compound NOT metabolized | Compound NOT metabolized
CC(=O)OCC(=O)[C@@]1(O)[C@@H](C)C[C@H]2[C@@H]3CCC4=CC(=O)C=C[C@]4(C)[C@@]3(F)[C@@H](O)C[C@@]21C [BETAMETHASONE ACETATE] | – | – | – | – | – | Compound metabolized | – | Compound metabolized | Compound NOT metabolized | Compound NOT metabolized | Compound NOT metabolized | – | Compound metabolized | Compound NOT metabolized | Compound NOT metabolized | Compound NOT metabolized | Compound NOT metabolized | Compound NOT metabolized | – | Compound metabolized
O=C1C(CC[S+]([O-])c2ccccc2)C(=O)N(c2ccccc2)N1c1ccccc1 (configuration not stated) [SULFINPYRAZONE] | Compound NOT metabolized | Compound NOT metabolized | Compound NOT metabolized | Compound NOT metabolized | – | Compound metabolized | Compound NOT metabolized | Compound NOT metabolized | Compound NOT metabolized | Compound NOT metabolized | Compound NOT metabolized | Compound NOT metabolized | Compound NOT metabolized | Compound NOT metabolized | Compound NOT metabolized | – | Compound NOT metabolized | Compound NOT metabolized | – | –
CC(O)(CS(=O)(=O)c1ccc(F)cc1)C(=O)Nc1ccc(C#N)c(C(F)(F)F)c1 (configuration not stated) [BICALUTAMIDE] | – | Compound NOT metabolized | – | Compound NOT metabolized | Compound NOT metabolized | Compound NOT metabolized | Compound NOT metabolized | Compound NOT metabolized | Compound NOT metabolized | Compound NOT metabolized | Compound NOT metabolized | Compound NOT metabolized | Compound NOT metabolized | Compound NOT metabolized | Compound NOT metabolized | Compound NOT metabolized | Compound NOT metabolized | Compound NOT metabolized | Compound NOT metabolized | Compound NOT metabolized
COc1cc2nc(N3CCN(C(=O)C4CCCO4)CC3)nc(N)c2cc1OC (configuration not stated) [TERAZOSIN] | – | Compound NOT metabolized | Compound NOT metabolized | Compound NOT metabolized | Compound NOT metabolized | Compound NOT metabolized | – | Compound NOT metabolized | Compound NOT metabolized | Compound NOT metabolized | Compound NOT metabolized | Compound NOT metabolized | Compound NOT metabolized | Compound NOT metabolized | Compound NOT metabolized | – | Compound NOT metabolized | Compound NOT metabolized | Compound NOT metabolized | Compound NOT metabolized
CCCc1nn(C)c2c(=O)[nH]c(-c3cc(S(=O)(=O)N4CCN(C)CC4)ccc3OCC)nc12.O=C(O)CC(O)(CC(=O)O)C(=O)O [SILDENAFIL CITRATE] | – | – | Compound NOT metabolized | Compound NOT metabolized | Compound NOT metabolized | Compound NOT metabolized | Compound NOT metabolized | Compound NOT metabolized | Compound NOT metabolized | Compound NOT metabolized | Compound NOT metabolized | Compound NOT metabolized | Compound NOT metabolized | Compound NOT metabolized | Compound NOT metabolized | Compound NOT metabolized | Compound NOT metabolized | Compound NOT metabolized | Compound NOT metabolized | Compound metabolized
